Data from ChEMBL document CHEMBL4000210, “Mitigation of reactive metabolite formation for a series of 3-amino-2-pyridone inhibitors of Bruton's tyrosine kinase (BTK)” (Bioorg Med Chem Lett, 2017).

Test system: Liver
Test: Drug metabolism in human liver microsomes assessed as covalent binding per mg protein at 10 uM preincubated for 5 mins followed by NADPH addition measured after 30 mins by liquid scintillation counting
Format: ADME, microsome
Conditions: 0.5 h

SMILES	Drug metabolism [pmol]
CN1CCN(c2ccc(Nc3cc(-c4cccc(-n5ccc6cc(C7CC7)cc(F)c6c5=O)c4CO)cn(C)c3=O)nc2)CC1	294
Cn1cc(-c2cccc(-n3ncc4cc(C(C)(C)C)cc(F)c4c3=O)c2[14CH2]O)cc(Nc2ccc(C(=O)N3CCOCC3)cn2)c1=O	294
Cn1nc(-c2cccc(-n3ncc4cc(C(C)(C)C)cc(F)c4c3=O)c2[14CH2]O)cc(Nc2ccc(C(=O)N3CCOCC3)cn2)c1=O	26
CN(C)c1ccc2c(c1)CCN(c1cccc(-c3cc(Nc4ccc(C(=O)N5CCOCC5)cn4)c(=O)n(C)c3)c1[14CH2]O)C2=O	52
CN1CCN(c2ccc(Nc3cc(-c4cccc(-n5ncc6cc(C(C)(C)C)cc(F)c6c5=O)c4[14CH2]O)cn(C)c3=O)nc2)CC1	459
Cn1cc(-c2cccc(-n3ncc4cc(C(C)(C)C)cc(F)c4c3=O)c2[14CH2]O)cc(Nc2ccc(S(C)(=O)=O)cn2)c1=O	386
Cn1cc(-c2cccc(N3CCc4cc(C(C)(C)C)ccc4C3=O)c2[14CH2]O)cc(Nc2ccc(C(=O)N3CCOCC3)cn2)c1=O	422

Test system: Liver
Test: Drug metabolism in human liver microsomes assessed as covalent binding per mg protein at 10 uM in absence of NADPH measured after 30 mins by liquid scintillation counting
Format: ADME, microsome
Conditions: 0.5 h

SMILES	Drug metabolism [pmol]
CN1CCN(c2ccc(Nc3cc(-c4cccc(-n5ncc6cc(C(C)(C)C)cc(F)c6c5=O)c4[14CH2]O)cn(C)c3=O)nc2)CC1	49

Test system: Liver
Test: Drug level in human liver microsomes treated with 6-tert-butyl-8-fluoro-2-(2-(hydroxymethyl)-3-(1-methyl-5-(5-(methylsulfonyl)pyridin-2-ylamino)-6-oxo-1,6-dihydropyridin-3-yl)phenyl)phthalazin-1(2H)-one by UPLC-MS/MS method
Format: ADME, microsome
Conditions: not given

SMILES	Drug metabolism
CN1C(=O)/C(=N/c2ccc(S(C)(=O)=O)cn2)C=C(c2cccc(-n3ncc4cc(C(C)(C)CO)cc(F)c4c3=O)c2CO)C1SC[C@H](NC(=O)CC[C@H](N)C(=O)O)C(=O)NCC(=O)O (stereo not given in full)	Metabolite_Detected
CN1C(=O)/C(=N/c2ccc(S(C)(=O)=O)cn2)C=C(c2cccc(-n3ncc4cc(C(C)(C)C)cc(F)c4c3=O)c2CO)C1SC[C@H](NC(=O)CC[C@H](N)C(=O)O)C(=O)NCC(=O)O (stereo not given in full)	Metabolite_Detected
